Assay results published in ChEMBL document CHEMBL5614376, “Discovery of MT-1207: A Novel, Potent Multitarget Inhibitor as a Promising Clinical Candidate for the Treatment of Hypertension” (J Med Chem, 2024).

Key:
Assay type in all cases: cell membranes
[1] = biological target: T1, Alpha-1A adrenergic receptor (Homo sapiens) (UniProt P35348); experiment: Displacement of [3H]prazosin from recombinant human alpha 1A adrenoceptor extracted from CHO cell membrane at 1 nM incubated for 60 mins by radioligand binding assay relative to control
T1 sequence (whole entry): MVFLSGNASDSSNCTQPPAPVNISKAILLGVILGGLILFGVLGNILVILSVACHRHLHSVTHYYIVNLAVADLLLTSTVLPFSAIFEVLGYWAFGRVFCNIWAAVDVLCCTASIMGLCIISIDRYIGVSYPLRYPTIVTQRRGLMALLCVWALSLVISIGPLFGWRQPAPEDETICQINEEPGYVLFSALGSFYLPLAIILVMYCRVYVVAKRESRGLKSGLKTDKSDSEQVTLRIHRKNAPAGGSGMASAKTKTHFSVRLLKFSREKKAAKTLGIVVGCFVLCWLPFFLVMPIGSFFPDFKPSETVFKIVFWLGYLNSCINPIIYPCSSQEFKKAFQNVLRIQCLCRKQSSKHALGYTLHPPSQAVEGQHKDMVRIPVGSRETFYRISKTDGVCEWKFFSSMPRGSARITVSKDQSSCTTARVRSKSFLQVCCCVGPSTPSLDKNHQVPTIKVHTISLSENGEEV

[2] = biological target: T1, Alpha-1A adrenergic receptor (Homo sapiens); experiment: Displacement of [3H]prazosin from recombinant human alpha 1A adrenoceptor extracted from CHO cell membrane at 10 nM incubated for 60 mins by radioligand binding assay relative to control
[3] = biological target: T1, Alpha-1A adrenergic receptor (Homo sapiens); experiment: Displacement of [3H]prazosin from recombinant human alpha 1A adrenoceptor extracted from CHO cell membrane at 100 nM incubated for 60 mins by radioligand binding assay relative to control
[4] = biological target: T2, 5-hydroxytryptamine receptor 2A (Homo sapiens, UniProt P28223); experiment: Displacement of [3H]Ketanserin from recombinant human 5-HT2A receptor extracted from CHO cell membrane at 1 nM incubated for 60 mins by radioligand binding assay relative to control
[5] = biological target: T2, 5-hydroxytryptamine receptor 2A; experiment: Displacement of [3H]Ketanserin from recombinant human 5-HT2A receptor extracted from CHO cell membrane at 10 nM incubated for 60 mins by radioligand binding assay relative to control
[6] = biological target: T2, 5-hydroxytryptamine receptor 2A; experiment: Displacement of [3H]Ketanserin from recombinant human 5-HT2A receptor extracted from CHO cell membrane at 100 nM incubated for 60 mins by radioligand binding assay relative to control

T2 sequence (P28223 whole entry): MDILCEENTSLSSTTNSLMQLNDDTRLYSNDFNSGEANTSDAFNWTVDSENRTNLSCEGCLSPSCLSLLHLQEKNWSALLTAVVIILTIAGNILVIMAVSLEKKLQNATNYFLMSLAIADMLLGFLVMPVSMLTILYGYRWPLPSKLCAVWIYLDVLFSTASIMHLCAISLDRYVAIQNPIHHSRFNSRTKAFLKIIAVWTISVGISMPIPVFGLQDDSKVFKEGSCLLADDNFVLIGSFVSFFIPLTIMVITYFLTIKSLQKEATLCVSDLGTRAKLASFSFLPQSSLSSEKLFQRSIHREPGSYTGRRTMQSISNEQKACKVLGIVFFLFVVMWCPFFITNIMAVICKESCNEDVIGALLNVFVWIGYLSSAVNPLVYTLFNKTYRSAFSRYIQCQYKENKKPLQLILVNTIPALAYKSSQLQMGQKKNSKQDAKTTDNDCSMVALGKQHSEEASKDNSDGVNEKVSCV

| inhibition ([1]; filed as antagonist) [%] | inhibition ([2]; filed as antagonist) [%] | inhibition ([3]; filed as antagonist) [%] | inhibition [4] [%] | inhibition ([5]; filed as antagonist) [%] | inhibition ([6]; filed as antagonist) [%] | inhibition [1] [%] | inhibition ([4]; filed as antagonist) [%] | inhibition [2] [%] | inhibition [6] [%] | inhibition [5] [%] | inhibition [3] [%] | SMILES |
| --- | --- | --- | --- | --- | --- | --- | --- | --- | --- | --- | --- | --- |
| 80.7 | 100 | 100 | -3.85 | 81.9 | 96 | – | – | – | – | – | – | Fc1ccc2c(C3CCN(CCCCn4cnc5ccccc54)CC3)noc2c1 |
| – | 74.9 | 98 | -1.8 | 68.8 | 94 | 24.6 | – | – | – | – | – | c1ccc2c(c1)ncn2CCCN1CCN(c2nsc3ccccc23)CC1 |
| – | 87.7 | 98.8 | – | 96.4 | 98.7 | 39.8 | 76.9 | – | – | – | – | Fc1ccc2c(C3CCN(CCCn4nnc5ccccc54)CC3)noc2c1 |
| – | – | 80.1 | – | – | – | -3.72 | – | 21.3 | 1.87 | – | – | Fc1cccc(N2CCN(CCCCn3cnc4ccccc43)CC2)c1 |
| – | 65.1 | 99.1 | 5.91 | 79.1 | 99.1 | 29.5 | – | – | – | – | – | Fc1ccc2c(N3CCN(CCCn4nc5ccccc5n4)CC3)noc2c1 |
| 93.8 | 100 | 101 | 39.9 | 89.5 | 98.2 | – | – | – | – | – | – | Fc1ccc2c(C3CCN(CCCCn4nnc5ccccc54)CC3)noc2c1 |
| – | – | 79.6 | – | – | – | -9.51 | – | 35 | 39.2 | – | – | c1ccc(N2CCN(CCCCn3nnc4ccccc43)CC2)cc1 |
| – | 83.2 | 99 | – | 98.7 | 98.3 | 28.9 | 79.7 | – | – | – | – | Fc1ccc2c(C3CCN(CCCn4nc5ccccc5n4)CC3)noc2c1 |
| – | – | 44.8 | – | – | – | 8.76 | – | 14.8 | 14 | – | – | FC(F)(F)c1cccc(N2CCN(CCCCCn3nc4ccccc4n3)CC2)c1 |
| – | – | 79.7 | – | – | – | -7.67 | – | 34.7 | 26.1 | – | – | Fc1ccc2ncn(CCCCN3CCN(c4cccc(C(F)(F)F)c4)CC3)c2c1 |
| 83.1 | 99 | 101 | – | 61.1 | 96.5 | – | – | – | – | – | – | Fc1ccc2c(N3CCN(CCCCn4nc5ccccc5n4)CC3)noc2c1 |
| – | 74.2 | 97.4 | – | – | 77.6 | 5.9 | – | – | – | 17.2 | – | Clc1cccc(N2CCN(CCCCn3nnc4ccccc43)CC2)c1 |
| 89.6 | 100 | 101 | 22.6 | 83.1 | 97 | – | – | – | – | – | – | Fc1ccc2c(N3CCN(CCCCn4cnc5ccccc54)CC3)noc2c1 |
| – | – | – | – | – | – | – | – | 7.06 | 9.94 | – | 30.3 | FC(F)(F)c1cccc(N2CCN(CCCCCCn3nc4ccccc4n3)CC2)c1 |
| 44.5 | 82.6 | 96.4 | 8.15 | 89.4 | 98.5 | – | – | – | – | – | – | c1ccc2c(c1)nnn2CCCN1CCN(c2nsc3ccccc23)CC1 |
| 78 | 98.9 | 99.8 | 15.4 | 93.4 | 99.6 | – | – | – | – | – | – | c1ccc2c(c1)ncn2CCCCN1CCN(c2nsc3ccccc23)CC1 |
| – | – | 72.5 | – | – | 63.4 | -5.08 | – | 38 | – | 0 | – | FC(F)(F)c1cccc(N2CCN(CCCCn3nnc4ccccc43)CC2)c1 |
| – | 71.6 | 98.5 | – | – | 67.2 | 15.4 | – | – | – | -1.87 | – | Clc1cccc(N2CCN(CCCCn3cnc4ccccc43)CC2)c1 |
| – | – | 40.1 | – | – | – | – | – | 7.19 | 37.7 | – | – | COc1ccccc1N1CCN(CCCOc2cccc(C)c2C)CC1 |

| inhibition ([1]; filed as antagonist) [%] | inhibition ([2]; filed as antagonist) [%] | inhibition ([3]; filed as antagonist) [%] | inhibition [4] [%] | inhibition ([5]; filed as antagonist) [%] | inhibition ([6]; filed as antagonist) [%] | inhibition [1] [%] | inhibition ([4]; filed as antagonist) [%] | inhibition [2] [%] | inhibition [6] [%] | inhibition [5] [%] | inhibition [3] [%] | SMILES |
| --- | --- | --- | --- | --- | --- | --- | --- | --- | --- | --- | --- | --- |
| 85.9 | 99.2 | 100 | – | – | 88.8 | – | – | – | – | 38.3 | – | c1ccc2c(c1)nnn2CCCCN1CCN(c2noc3ccccc23)CC1 |
| 44.2 | 82.3 | 93.7 | – | 81.3 | 100 | – | – | – | – | – | – | c1ccc2c(c1)nnn2OCCCN1CCN(c2nsc3ccccc23)CC1 |
| 46.3 | 87 | 102 | – | – | – | – | – | – | – | – | – | COc1cccc(OC)c1OCCNCC1COc2ccccc2O1 (stereo unspecified) |
| 46 | 86.2 | 95.3 | – | 80.9 | 95.8 | – | – | – | – | – | – | Fc1ccc2c(N3CCN(CCCn4nnc5ccccc54)CC3)noc2c1 |
| 69.5 | 94 | 99 | – | – | 84.9 | – | – | – | – | 5.31 | – | c1ccc2nn(CCCCN3CCN(c4noc5ccccc45)CC3)nc2c1 |
| – | – | – | – | – | – | – | – | – | 18.9 | – | 3.42 | FC(F)(F)c1cccc(N2CCN(CCn3nnc4ccccc43)CC2)c1 |
| 98.6 | 95 | 96.9 | – | 71.5 | 95.4 | – | – | – | – | – | – | Fc1ccc2c(N3CCN(CCCCn4nnc5ccccc54)CC3)noc2c1 |
| – | – | – | – | – | 44.7 | -8.07 | – | -9.63 | – | – | 20.7 | FC(F)(F)c1cccc(N2CCN(CCCn3nc4ccccc4n3)CC2)c1 |
| – | 46.6 | 91 | – | – | 54 | -7.76 | – | – | – | -2.88 | – | Fc1cccc(N2CCN(CCCCn3nnc4ccccc43)CC2)c1 |
| – | – | 78 | – | – | 55 | 11.7 | – | 27 | – | -5.13 | – | Clc1cccc(N2CCN(CCCCn3cnc4ccccc43)CC2)c1Cl |
| – | – | 89.3 | – | – | – | -1.42 | – | 36.4 | 37.7 | – | – | FC(F)(F)c1cccc(N2CCN(CCCCn3cnc4ccccc43)CC2)c1 |
| – | – | 53 | – | – | – | -7.22 | – | -1.54 | 38.1 | – | – | FC(F)(F)c1cccc(N2CCN(CCCCn3nc4ccccc4n3)CC2)c1 |
| – | – | 75.3 | – | – | 71.4 | – | – | 13 | – | 7.37 | – | FC(F)(F)c1cccc(N2CCN(CCCCCn3nnc4ccccc43)CC2)c1 |
| – | 79.8 | 98.9 | – | – | – | 6.89 | – | – | -5.62 | – | – | Cc1nc2ccccc2n1CCCCN1CCN(c2cccc(C(F)(F)F)c2)CC1 |
| – | 55 | 95.6 | – | – | – | -1.06 | – | – | 13.1 | – | – | COc1cccc(N2CCN(CCCCn3cnc4ccccc43)CC2)c1 |
| – | – | 61.3 | – | – | 64.5 | – | – | -2.01 | – | -6.65 | – | FC(F)(F)c1cccc(N2CCN(CCCn3nnc4ccccc43)CC2)c1 |
| – | – | 63.3 | -9.54 | – | 53.5 | – | – | 4.15 | – | 11.3 | – | FC(F)(F)c1cccc(N2CCN(CCCCCCn3nnc4ccccc43)CC2)c1 |
| – | – | – | – | 89.6 | – | – | 41.2 | – | – | – | – | O=C(c1ccc(F)cc1)C1CCN(CCn2c(=O)[nH]c3ccccc3c2=O)CC1 |
| – | – | 86.9 | – | – | 68.7 | -0.88 | – | 22.8 | – | -4.99 | – | COc1ccccc1N1CCN(CCCCn2cnc3ccccc32)CC1 |
